Experimental data published in patent US20140081017A1, “Histone Deacetylase Inhibitors for Enhancing Activity of Antifungal Agents” (METHYLGENE INC., priority 2012, published 2014).
In brackets after ≈: the same amount, converted by molar mass. Where two headings read alike, the source gives them in different places.

How the values were obtained:
Candida albicans = experiment: Minimal Inhibitory Concentration (MIC) assay, broth microdilution per CLSI; type: cell-based; conditions: for MIC: Candida albicans, read-out: Minimum Inhibitory Concentrations against Yeast Isolates, Candida albicans;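 for all read-outs here: two read times 24 hr and 48 hr of incubation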
Description: (§1) The in vitro activities of the inventive compounds (compound(s) herein) against fungi and/or yeasts were determined with isolates Candida albicans, Candida glabrata and Candida parapsilosis. The comparator compounds included fluconazole, caspofungin and amphotericin B.
(§2) The compounds were supplied as a powder, and were dissolved in dimethylsulfoxide (DMSO) the day of assay. Stock solutions were prepared at 10 mg/mL and diluted to a starting stock concentration of 2.56 mg/mL. Amphotericin B was dissolved in DMSO to a stock concentration of 2.56 mg/mL. Fluconazole was dissolved in deionized water to a stock concentration of 2.56 mg/mL. Caspofungin was received as a stock solution of 3.2 mg/mL in DMSO and was diluted to a starting stock concentration of 2.56 mg/mL.
(§3) The test organisms and reference isolates were streaked for isolation on Sabouraud agar medium (yeasts) or potato dextrose agar (fungi). Colonies were picked by swab from the medium and resuspended in the appropriate broth containing cryoprotectant. The suspensions were aliquoted into cryogenic vials and maintained at −80° C.
(§4) Prior to testing, the yeast isolates were streaked from the frozen vials onto Sabouraud dextrose agar. The plates were incubated overnight at 35° C. The fungal isolate was grown on potato dextrose agar slants and was incubated for 7-10 days at room temperature.
(§5) Both yeast and fungal isolates were tested in RPMI medium buffered with 0.165 M MOPS (3-(N-morpholino)propanesulfonic acid). The pH of the medium was adjusted to 7.0 with 1 N NaOH. The medium was sterile filtered using a 0.2 um PES (polyethersulfone) filter and stored at 4° C. until used.
(§6) The MIC assay method followed the procedure described by the Clinical and Laboratory Standards Institute (CLSI; 1, 2, 3) and employed automated liquid handlers to conduct serial dilutions and liquid transfers. Automated liquid handlers included the Multidrop 384 (Labsystems, Helsinki, Finland), Biomek 2000 and Biomek FX (Beckman Coulter, Fullerton Calif.). The wells in columns 2-12 in standard 96-well microdilution plates (Costar 3795) were filled with 150 ul of 100% DMSO. These would become the ‘mother plates’ from which ‘daughter’ or test plates would be prepared. The compounds (300 uL at 40× the desired top concentration in the test plates) were dispensed into the appropriate well in Column 1 of the mother plates. The Biomek 2000 was used to make serial 1:1 dilutions through Column 11 in the “mother plate”. The wells of Column 12 contained no compounds and were the organism growth control wells.
(§7) The daughter plates were loaded with 185 uL per well of RPMI described above using the Multidrop 384. The daughter plates were prepared using the Biomek FX which transferred 5 μL of the compound solution from each well of a mother plate to the corresponding well of the daughter plate in a single step.
(§8) Standardized inoculum of each organism was prepared per CLSI methods. For yeast isolates, colonies were picked from the streak plate and a suspension was prepared in 0.85% saline. For the fungal isolate, 1 mL of 0.85% saline was dispensed onto the potato dextrose agar slant that had been inoculated 7-10 days previously. Using a swab, a suspension of the fungus was made. After a short time to allow the heavy particles to settle out, a small quantity of the supernatant was dispensed into 0.85% saline and the suspension adjusted to equal a 0.5 McFarland turbidity standard. Both yeast and fungal isolates were diluted 1:100 in RPMI and then transferred to compartments of sterile reservoirs divided by length (Beckman Coulter). The Biomek 2000 was used to inoculate the plates. Daughter plates were placed on the Biomek 2000 work surface reversed so that inoculation took place from low to high compound concentration. The Biomek 2000 delivered 10 μL of standardized inoculum into each well. Thus, the wells of the daughter plates ultimately contained 185 uL of RPMI, 5 uL of the compound solution, and 10 uL of inoculum. […]

Candida glabrata = experiment: as above; type: cell-based; conditions: for MIC: Nakaseomyces glabratus, read-out: Minimum Inhibitory Concentrations against Yeast Isolates, Candida glabrata;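 for all read-outs here: two read times 24 hr and 48 hr of incubation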
Description: as §1, §2, §3, §4, §5, §6, §7, §8

Candida parapsilosis = experiment: as above; type: cell-based; conditions: for MIC: Lodderomyces parapsilosis, read-out: Minimum Inhibitory Concentrations against Yeast Isolates, Candida parapsilosis;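 for all read-outs here: two read times 24 hr and 48 hr of incubation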
Description: as §1, §2, §3, §4, §5, §6, §7, §8

C. glabrata = experiment: Checkerboard FIC assay in combination with fluconazole (MIC alone and in combination, FICI); type: cell-based, Candida glabrata; conditions: for FICI of combination resulting in fluconazole MIC of: 2 ug/mL / FICI of combination resulting in fluconazole MIC of: 4 ug/mL / FICI of combination resulting in fluconazole MIC of: 8 ug/mL: FICI calculated using a fluconazole MIC of 16 μg/mL; for FICI of combination resulting in fluconazole MIC of: 2 ug/mL (value in parenthesis) / FICI of combination resulting in fluconazole MIC of: 4 ug/mL (value in parenthesis) / FICI of combination resulting in fluconazole MIC of: 8 ug/mL (value in parenthesis): FICI using a fluconazole MIC of 128 μg/mL; for MIC: Nakaseomyces glabratus; for Concentration of Methylgene compound to synergize fluconazole MIC to 2 ug/mL / Concentration of Methylgene compound to synergize fluconazole MIC to 4 ug/mL / Concentration of Methylgene compound to synergize fluconazole MIC to 8 ug/mL: in combination with fluconazole; for Concentration of Methylgene compound to synergize fluconazole MIC to 2 ug/mL: fluconazole MIC lowered to 2 ug/mL; for Concentration of Methylgene compound to synergize fluconazole MIC to 4 ug/mL: fluconazole MIC lowered to 4 ug/mL; for Concentration of Methylgene compound to synergize fluconazole MIC to 8 ug/mL: fluconazole MIC lowered to 8 ug/mL
Description: The ability of the compounds to synergize with azoles against C. glabrata was evaluated by the checkerboard assay, a common laboratory method used to evaluate synergy, antagonism, and indifference using fractional inhibitory concentrations (FICs) and FIC indices (FICI).
The test compounds were supplied as a powder and dissolved in dimethylsulfoxide (DMSO) on the day of assay. Stock solutions were prepared at 640 ug/mL. Fluconazole was dissolved in deionized water to a stock concentration of 320 ug/mL. All test articles were in solution under these conditions.
as §3, §4, §5
FIC values were determined using a broth microdilution method (CLSI; 1, 3). To prepare the test plates, automated liquid handlers (Multidrop 384, Labsystems, Helsinki, Finland; Biomek 2000 and Biomek FX, Beckman Coulter, Fullerton Calif.) were used to conduct serial dilutions and liquid transfers.
The wells of standard 96-well microdilution plates (Costar 3795) were filled with 150 uL of DMSO in columns 2-12. Three hundred microliters of each test compound was added to each well in Column 1 of the plates. The Biomek 2000 was used to make eleven 2-fold serial dilutions in each of these “test compound mother” plates. The wells of the “fluconazole mother plates” were filled with 150 uL of sterile water in rows B-H. Row A of these plates was filled with 300 uL of the fluconazole stock solution. Serial 2-fold dilutions were then prepared from top to bottom by hand, using a multichannel pipette in rows B-G. The “daughter plates” were loaded with 180 uL of RPMI using the Multidrop 384. The Biomek FX was used to transfer 5 uL of compound solution from each well of a fluconazole mother plate to the corresponding well in all of the daughter plates in a single step. Then the Biomek FX was used to transfer 5 uL of compound solution from each well of a test compound mother plate to the corresponding well of the corresponding test compound daughter plate (already containing fluconazole at the appropriate concentrations) in a single step. Row H and Column 12 each contained serial dilutions of the test agent and fluconazole alone, respectively, for determination of the MIC.
Standardized inoculum of each organism was prepared per CLSI methods (CLSI; 1, 3). For yeast isolates, colonies were picked from the primary plate and a suspension was prepared in 0.85% saline to equal a 0.5 McFarland turbidity standard. For the fungal isolate, 1 mL of 0.85% saline was dispensed onto a potato dextrose agar slant onto which the isolate had been inoculated 7-10 days previously. Using a swab, a suspension of the fungus was made. After a short time to allow the heavy particles to settle out, a small quantity of the supernatant was dispensed into 0.85% saline and the suspension was adjusted to equal a 0.5 McFarland turbidity standard. Both yeast and fungal isolates were diluted 1:100 in RPMI and then transferred to compartments of sterile reservoirs divided by length (Beckman Coulter). The Biomek 2000 was used to inoculate the plates. […]

[1] = 24 hr reading (first value of cell 24 hr/48 hr)
[2] = 48 hr reading (second value of cell 24 hr/48 hr)
[3] = MIC of the example compound alone against C. glabrata in the checkerboard assay, approximately 48 hr, read-out: Methylgene MIC
[4] = test compound alone, C. glabrata, approx. 48 hr at 35° C., read-out: Compound MIC

MIC (Candida albicans; [1]) [µg/mL] | MIC (Candida albicans; [2]) [µg/mL] | MIC (Candida glabrata; [1]) [µg/mL] | MIC (Candida glabrata; [2]) [µg/mL] | MIC (Candida parapsilosis; [1]) [µg/mL] | MIC (Candida parapsilosis; [2]) [µg/mL] | FICI of combination resulting in fluconazole MIC of: 2 ug/mL (C. glabrata; C. glabrata) | FICI of combination resulting in fluconazole MIC of: 4 ug/mL (C. glabrata; C. glabrata) | FICI of combination resulting in fluconazole MIC of: 8 ug/mL (C. glabrata; C. glabrata) | FICI of combination resulting in fluconazole MIC of: 2 ug/mL (value in parenthesis) (C. glabrata; C. glabrata) | FICI of combination resulting in fluconazole MIC of: 4 ug/mL (value in parenthesis) (C. glabrata; C. glabrata) | FICI of combination resulting in fluconazole MIC of: 8 ug/mL (value in parenthesis) (C. glabrata; C. glabrata) | MIC (C. glabrata; [3]) [µg/mL] | MIC (C. glabrata; [4]) [µg/mL] | Concentration of Methylgene compound to synergize fluconazole MIC to 2 ug/mL (C. glabrata; C. glabrata) [µg/mL] | Concentration of Methylgene compound to synergize fluconazole MIC to 4 ug/mL (C. glabrata; C. glabrata) [µg/mL] | Concentration of Methylgene compound to synergize fluconazole MIC to 8 ug/mL (C. glabrata; C. glabrata) [µg/mL] | Compound | further results
> 64 | > 64 | 16 (≈ 36.1 µM) | 64 (≈ 144 µM) | 64 (≈ 144 µM) | > 64 | 0.188 | 0.250 | 0.313 | 0.141 | 0.156 | 0.125 | > 16 | > 16 | 4 | 4 | 2 | CN(C)CCSCC(=O)Nc1cccc(CCCCc2ccc(CC(=O)NO)cc2)c1 [Example 44, 2-(2-(dimethylamino)ethylthio)-N-(3-(4-(4-(2-(hydroxyamino)-2-oxoethyl)phenyl)butyl)phenyl)acetamide] | –
0.25 (≈ 0.864 µM) | 0.25 (≈ 0.864 µM) | 0.12 (≈ 0.415 µM) | 0.12 (≈ 0.415 µM) | 0.12 (≈ 0.415 µM) | 0.25 (≈ 0.864 µM) | 0.543 | 0.605 | 0.730 | 0.496 | 0.511 | 0.543 | 0.25 | 0.25 | 0.12 | 0.12 | 0.12 | O=C(Cc1ccc(CCCCC2CCCCC2)cc1)NO [Example 8, 2-(4-(4-cyclohexylbutyl)phenyl)-N-hydroxyacetamide] | Multiple of compound MIC to synergize fluconazole MIC to 2 ug/mL (C. glabrata; concentration in combination as multiple of the compound's MIC alone, fluconazole MIC 2 ug/mL): (½x); Multiple of compound MIC to synergize fluconazole MIC to 4 ug/mL (C. glabrata; concentration in combination as multiple of the compound's MIC alone, fluconazole MIC 4 ug/mL): (½x); Multiple of compound MIC to synergize fluconazole MIC to 8 ug/mL (C. glabrata; concentration in combination as multiple of the compound's MIC alone, fluconazole MIC 8 ug/mL): (½x)
> 64 | > 64 | > 64 | > 64 | > 64 | > 64 | – | – | – | – | – | – | – | – | – | – | – | O=C(Cc1ccc(CCCCc2ccc(OCCN3CCCC3)cc2)cc1)NO [Example 18, N-hydroxy-2-(4-(4-(4-(2-(pyrrolidin-1-yl)ethoxy)phenyl)butyl)phenyl)acetamide] | –
32 (≈ 117 µM) | 32 (≈ 117 µM) | 32 (≈ 117 µM) | 32 (≈ 117 µM) | 32 (≈ 117 µM) | 32 (≈ 117 µM) | – | – | – | – | – | – | – | – | – | – | – | O=C(Cc1ccc(CCCCc2ccccc2)o1)NO [Example 62, N-hydroxy-2-(5-(4-phenylbutyl)furan-2-yl)acetamide] | –
> 64 | > 64 | > 64 | > 64 | > 64 | > 64 | – | – | – | – | – | – | – | – | – | – | – | CN(C)CCCOc1ccc(CCCCc2ccc(CC(=O)NO)cc2)cc1 [Example 17, 2-(4-(4-(4-(3-(dimethylamino)propoxy)phenyl)butyl)phe-nyl)-N-hydroxyacetamide] | –
– | – | – | – | – | – | – | – | – | – | – | – | – | – | – | – | – | C[C@@H]1[C@H](O)[C@@H](C)/C=C/C=C/C=C/C=C/C=C/C=C/C=C/[C@H](O[C@@H]2O[C@H](C)[C@@H](O)[C@H](N)[C@@H]2O)C[C@@H]2O[C@](O)(C[C@@H](O)C[C@@H](O)[C@H](O)CC[C@@H](O)C[C@@H](O)CC(=O)O[C@H]1C)C[C@H](O)[C@H]2C(=O)O [Amphotericin B, reference compound] | Minimum Inhibitory Concentrations against Yeast Isolates, Candida albicans (Candida albicans; [1]): < 0.06 µg/mL; Minimum Inhibitory Concentrations against Yeast Isolates, Candida albicans (Candida albicans; [2]): 0.25 µg/mL; Minimum Inhibitory Concentrations against Yeast Isolates, Candida glabrata (Candida glabrata; [1]): < 0.06 µg/mL; Minimum Inhibitory Concentrations against Yeast Isolates, Candida glabrata (Candida glabrata; [2]): 0.5 µg/mL; Minimum Inhibitory Concentrations against Yeast Isolates, Candida parapsilosis (Candida parapsilosis; [1]): 0.25 µg/mL; Minimum Inhibitory Concentrations against Yeast Isolates, Candida parapsilosis (Candida parapsilosis; [2]): 0.5 µg/mL
